Active and inactive are the calls of the source. No cut-off for these calls is given here.
Columns and labels:
[1] = (§1) Cytotoxicity against human SH-SY5Y cells assessed as cellular metabolic activity by measuring resazurin reduction at 10 to 50 uM incubated for 24 hrs followed by incubation with resazurin for 2 hrs by fluorescence based assay (reference value: >85%); type: ADME, cell-based; details: SH-SY5Y cells, read-out: Activity
[2] = molecular target: T1, ATP-dependent translocase ABCB1 (Homo sapiens, UniProt P08183); assay: (§2) Inhibition of P-gp in human Caco2 cells assessed as decrease in Rho123 efflux by measuring decrease in ratio between fluorescence intensity of Zos-inhibited Rho123 accumulation and fluorescence intensity of non-inhibited Rho123 accumulation at 10 uM using Rho123 as substrate preincubated for 30 mins in presence of 5 uM P-gp inhibitor, Zos followed by incubation with Rhodamine 123 for 90 mins by fluorescence spectroscopy analysis; type: cell-based; details: 1.5 h
T1 sequence (P08183 whole entry): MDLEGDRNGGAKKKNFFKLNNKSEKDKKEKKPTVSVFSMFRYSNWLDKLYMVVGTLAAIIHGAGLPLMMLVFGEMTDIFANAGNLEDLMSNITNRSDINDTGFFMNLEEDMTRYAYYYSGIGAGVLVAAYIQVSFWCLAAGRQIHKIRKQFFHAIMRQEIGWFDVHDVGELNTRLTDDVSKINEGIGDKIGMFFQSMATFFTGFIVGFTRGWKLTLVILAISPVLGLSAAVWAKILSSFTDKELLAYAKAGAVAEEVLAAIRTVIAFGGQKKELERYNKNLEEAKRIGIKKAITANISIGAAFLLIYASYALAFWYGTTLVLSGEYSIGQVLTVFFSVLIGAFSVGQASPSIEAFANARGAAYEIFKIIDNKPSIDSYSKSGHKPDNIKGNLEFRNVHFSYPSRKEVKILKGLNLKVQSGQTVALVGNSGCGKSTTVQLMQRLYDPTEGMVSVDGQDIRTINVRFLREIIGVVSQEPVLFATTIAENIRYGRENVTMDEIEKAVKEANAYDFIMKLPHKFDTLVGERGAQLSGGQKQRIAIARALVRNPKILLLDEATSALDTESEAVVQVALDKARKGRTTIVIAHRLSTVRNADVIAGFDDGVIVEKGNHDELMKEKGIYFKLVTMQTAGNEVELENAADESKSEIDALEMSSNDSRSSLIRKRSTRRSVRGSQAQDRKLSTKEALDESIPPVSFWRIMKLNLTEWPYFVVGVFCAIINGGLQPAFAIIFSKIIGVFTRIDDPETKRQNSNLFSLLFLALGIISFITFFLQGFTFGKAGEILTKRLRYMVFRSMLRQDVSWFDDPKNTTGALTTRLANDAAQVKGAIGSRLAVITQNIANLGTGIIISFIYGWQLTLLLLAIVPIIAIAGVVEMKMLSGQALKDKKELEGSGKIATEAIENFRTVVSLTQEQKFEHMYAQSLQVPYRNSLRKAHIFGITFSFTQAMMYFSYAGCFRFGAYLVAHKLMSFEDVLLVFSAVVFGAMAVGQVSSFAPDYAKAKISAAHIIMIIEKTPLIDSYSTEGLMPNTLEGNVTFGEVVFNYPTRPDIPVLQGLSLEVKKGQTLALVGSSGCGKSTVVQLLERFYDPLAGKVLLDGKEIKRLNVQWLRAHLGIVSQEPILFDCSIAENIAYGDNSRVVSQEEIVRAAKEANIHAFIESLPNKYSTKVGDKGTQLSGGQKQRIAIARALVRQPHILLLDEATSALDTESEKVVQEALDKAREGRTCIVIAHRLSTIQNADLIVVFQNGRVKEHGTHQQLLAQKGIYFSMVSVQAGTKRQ

[3] = Cytotoxicity against human Caco2 cells assessed as cellular metabolic activity by measuring resazurin reduction at 10 to 50 uM incubated for 24 hrs followed by incubation with resazurin for 1 hr by fluorescence based assay (reference value: >85%); type: ADME, cell-based; details: Caco-2 cells, read-out: Activity
[4] = molecular target: T2, Amine oxidase [flavin-containing] A (Homo sapiens, UniProt P21397); details: BTI-TN-5B1-4, human, read-out: INH
T2 sequence (P21397 whole entry): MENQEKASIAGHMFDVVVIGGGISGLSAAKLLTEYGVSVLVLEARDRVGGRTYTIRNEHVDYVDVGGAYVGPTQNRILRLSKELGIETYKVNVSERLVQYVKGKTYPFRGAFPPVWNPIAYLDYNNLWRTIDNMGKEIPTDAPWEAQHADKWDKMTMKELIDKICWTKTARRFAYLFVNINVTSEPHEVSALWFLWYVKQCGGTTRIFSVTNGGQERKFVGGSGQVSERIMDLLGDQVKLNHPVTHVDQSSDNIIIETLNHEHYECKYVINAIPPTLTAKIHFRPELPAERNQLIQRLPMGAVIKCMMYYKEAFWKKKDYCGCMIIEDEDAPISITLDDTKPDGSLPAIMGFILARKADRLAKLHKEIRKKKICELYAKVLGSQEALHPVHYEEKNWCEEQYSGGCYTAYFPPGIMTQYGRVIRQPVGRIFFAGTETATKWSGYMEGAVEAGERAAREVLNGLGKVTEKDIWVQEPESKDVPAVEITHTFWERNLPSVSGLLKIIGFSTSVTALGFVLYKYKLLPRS
Description: Inhibition of human microsomal MAO-A expressed in baculovirus infected BTI-TN-5B1-4 cells assessed as reduction in 4-hydroxyquinoline formation at 10 uM using kynuramine as substrate preincubated with substrate for 10 mins followed by enzyme inhibition by spectrophotometric analysis

[5] = (§3) Cytotoxicity against human SH-SY5Y cells assessed as lysosomal activity by measuring neutral red uptake at 10 to 50 uM incubated for 24 hrs followed by incubation with neutral red solution for 2 hrs by microplate reader analysis (reference value: >85%); type: cell-based; details: SH-SY5Y cells, read-out: Activity
[6] = Chromatographic hydrophobicity index of compound at 250 uM at pH 7.4 by HPLC analysis; type: ADME; details: pH 7.4, 250 µM
[7] = Chromatographic hydrophobicity index, log D of compound at 250 uM at pH 7.4 by HPLC analysis; type: physicochemical; details: buffer
[8] = Cytotoxicity against human Caco2 cells assessed as lysosomal activity by measuring neutral red uptake at 10 to 50 uM incubated for 24 hrs followed by incubation with neutral red solution for 1 hr by microplate reader analysis (reference value: >85%); type: cell-based; details: Caco-2 cells, read-out: Activity
Homo sapiens = organism: Homo sapiens; assay: Selectivity index, ratio of IC50 for human microsomal MAO-A expressed in baculovirus infected […] cells to IC50 for human microsomal MAO-B expressed in baculovirus infected […] cells using kynuramine as substrate
[9] = molecular target: T3, Amine oxidase [flavin-containing] B (Homo sapiens, UniProt P27338); assay: biochemical; type: cell-based, BTI-TN-5B1-4
T3 sequence (P27338 whole entry): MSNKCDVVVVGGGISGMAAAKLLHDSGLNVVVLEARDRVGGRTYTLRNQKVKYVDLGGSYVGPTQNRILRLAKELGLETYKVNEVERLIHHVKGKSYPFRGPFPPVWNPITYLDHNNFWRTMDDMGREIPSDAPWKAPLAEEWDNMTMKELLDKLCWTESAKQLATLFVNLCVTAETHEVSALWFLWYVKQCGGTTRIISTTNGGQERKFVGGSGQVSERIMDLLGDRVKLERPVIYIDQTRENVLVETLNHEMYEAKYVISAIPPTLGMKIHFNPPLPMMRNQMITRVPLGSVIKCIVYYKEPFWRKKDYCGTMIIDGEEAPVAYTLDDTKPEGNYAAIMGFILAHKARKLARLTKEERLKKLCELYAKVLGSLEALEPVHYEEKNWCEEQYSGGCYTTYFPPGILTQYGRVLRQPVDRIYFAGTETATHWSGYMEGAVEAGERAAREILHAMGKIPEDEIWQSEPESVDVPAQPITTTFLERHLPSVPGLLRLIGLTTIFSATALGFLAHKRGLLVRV
Description: Inhibition of human microsomal MAO-B expressed in baculovirus infected BTI-TN-5B1-4 cells assessed as reduction in 4-hydroxyquinoline formation using kynuramine as substrate preincubated with substrate for 10 mins followed by enzyme addition by spectrophotometric analysis

[10] = Retention time of compound at pH 7.4 by LC-UV analysis; type: physicochemical; details: buffer
[11] = molecular target: T3, Amine oxidase [flavin-containing] B; assay: Inhibition of human microsomal MAO-B expressed in baculovirus infected BTI-TN-5B1-4 cells assessed as reduction in 4-hydroxyquinoline formation at 10 uM using kynuramine as substrate preincubated with substrate for 10 mins followed by enzyme addition by spectrophotometric analysis; details: BTI-TN-5B1-4, human
Caco-2 = assay: Effect on P-gp protein expression in human Caco-2 cells at 10 uM incubated for 30 mins; type: functional, cell-based
[12] = molecular target: T3, Amine oxidase [flavin-containing] B; assay: Competitive inhibition of human microsomal MAO-B expressed in baculovirus infected BTI-TN-5B1-4 cells assessed as constant Vmax using kynuramine as substrate preincubated with substrate at varying concentrations for 10 mins followed by enzyme addition by Lineweaver-Burk plot analysis
SH-SY5Y [13] = assay: Induction of intracellular oxidative stress in human SH-SY5Y cells assessed as increase in reactive species level at 10 to 50 uM pretreated with DCFH-DA for 1.5 hrs followed by incubation with compound for 24 hrs by DCFH-DA dye based fluorescence assay relative to control; type: cell-based
[14] = molecular target: T1, ATP-dependent translocase ABCB1; assay: as §2, with “Induction of” for “Inhibition of”, “Rho123 intracellular accumulation” for “Rho123 efflux”, “measuring increase” for “measuring decrease”; type: cell-based; details: 1.5 h
[15] = molecular target: T3, Amine oxidase [flavin-containing] B; assay: Competitive inhibition of human microsomal MAO-B expressed in baculovirus infected BTI-TN-5B1-4 cells assessed as increase in substrate Km using kynuramine as substrate preincubated with substrate at varying concentrations for 10 mins followed by enzyme addition by Lineweaver-Burk plot analysis
[16] = molecular target: T3, Amine oxidase [flavin-containing] B; assay: Competitive inhibition of human microsomal MAO-B expressed in baculovirus infected BTI-TN-5B1-4 cells assessed as inhibition constant using kynuramine as substrate preincubated with substrate at varying concentrations for 10 mins followed by enzyme addition by Lineweaver-Burk plot analysis
SH-SY5Y [17] = assay: as §1; type: ADME, cell-based; details: sh-sy5y, 24 h, 50 µM
SH-SY5Y [18] = assay: as §3; type: cell-based; details: sh-sy5y, 24 h, 50 µM
[19] = molecular target: T3, Amine oxidase [flavin-containing] B; assay: Reversible inhibition of human microsomal MAO-B expressed in baculovirus infected BTI-TN-5B1-4 cells assessed as 4-hydroxyquinoline formation using kynuramine as substrate incubated up to 140 mins by spectrophotometric analysis; details: bti-tn-5b1-4, 140 min
[20] = Stability of compound in DMSO-d6 and D2O (7:3) measured after 30 mins to 1 hr in presence of glutathione by thiol trapping assay based 1H-NMR analysis; type: physicochemical

N#C/C(=C\C=C\c1ccc2c(c1)OCO2)C(=O)OCCc1ccccc1
viability at 24 h, up to 50 µM [1]: > 85%
inhibition (INH) [2]: Active
viability at 24 h, up to 50 µM [3]: > 85%
inhibition at 10 µM [4]: < 50%
viability at 24 h [5]: > 85%
CHI [6]: 100.75
chromatographic logD at 250 µM [7]: 3.82
viability at 24 h [8]: > 85%
Ratio IC50 (Homo sapiens): > 101
IC50 [9]: 99.2 nM
Retention_time [10]: 12.37 min

CCCCC(=O)c1ccccc1 [VALEROPHENONE]
CHI [6]: 97.67
Retention_time [10]: 12.04 min

CCCCCCC(=O)c1ccccc1
CHI [6]: 111.8
Retention_time [10]: 13.67 min

O=C(/C=C/C=C/c1ccc2c(c1)OCO2)NCc1ccccc1
inhibition at 10 µM [11]: < 50%
inhibition at 10 µM [4]: < 50%

c1ccc2[nH]ccc2c1 [INDOLE]
CHI [6]: 69.15
Retention_time [10]: 10.27 min

c1ccc2[nH]cnc2c1 [BENZIMIDAZOLE]
CHI [6]: 30.71
Retention_time [10]: 8 min

NC(=O)N1c2ccccc2C=Cc2ccccc21 [CARBAMAZEPINE]
CHI [6]: 58.45
Retention_time [10]: 9.3 min

Cn1c(=O)c2c(ncn2C)n(C)c1=O [CAFFEINE]
CHI [6]: 24.12
Retention_time [10]: 7.56 min

N#C/C(=C\C=C\c1ccc2c(c1)OCO2)C(=O)N1CCCCC1
viability at 24 h, up to 50 µM [1]: > 85%
viability at 24 h, up to 50 µM [3]: > 85%
inhibition at 10 µM [4]: < 50%
viability at 24 h [5]: > 85%
Activity (Caco-2): inactive
inhibition (INH) [12]: Active
viability at 24 h [8]: > 85%
Ratio IC50 (Homo sapiens): > 70
Activity (SH-SY5Y [13]): 111.1%
Activity [14]: Not Active
IC50 [9]: 143 nM
inhibition (INH) [15]: Active
Ki [16]: 20.6 nM

O=C(/C=C/C=C/c1ccc2c(c1)OCO2)NCCc1ccccc1
inhibition at 10 µM [11]: < 50%
inhibition at 10 µM [4]: < 50%

O=C(/C=C/C=C/c1ccc2c(c1)OCO2)N1CCCCC1 [PIPERINE]
Activity (SH-SY5Y [17]): Non-Toxic
inhibition (INH) [2]: Not Active
inhibition at 10 µM [4]: < 50%
Activity (SH-SY5Y [18]): Non-Toxic
CHI [6]: 73.45
chromatographic logD at 250 µM [7]: 2.39
Ratio IC50 (Homo sapiens): 10
Activity [14]: Not Active
IC50 [9]: 1050 nM
Retention_time [10]: 10.61 min

N#C/C(=C\C=C\c1ccc2c(c1)OCO2)C(=O)NCCc1ccccc1
inhibition at 10 µM [11]: < 50%
inhibition at 10 µM [4]: < 50%

CCC(=O)c1ccccc1 [PROPIOPHENONE]
CHI [6]: 78.41
Retention_time [10]: 10.63 min

N#C/C(=C\C=C\c1ccc2c(c1)OCO2)C(=O)OCc1ccccc1
inhibition (INH) [19]: Active
viability at 24 h, up to 50 µM [1]: > 85%
inhibition (INH) [2]: Active
viability at 24 h, up to 50 µM [3]: > 85%
inhibition at 10 µM [4]: < 50%
viability at 24 h [5]: > 85%
Stability [20]: Stable
inhibition (INH) [12]: Active
CHI [6]: 96.73
chromatographic logD at 250 µM [7]: 3.61
viability at 24 h [8]: > 85%
Ratio IC50 (Homo sapiens): > 211
IC50 [9]: 47.4 nM
inhibition (INH) [15]: Active
Retention_time [10]: 12.11 min
Ki [16]: 44.1 nM
